# Reference: US8338594B2, “Pyrrolotriazine derivatives useful for treating cancer through inhibition of aurora kinase” (Bayer HealthCare LLC, priority 2005, dated 2012)
# What was measured:
# [1] = biological target: T1, murine Aurora Kinase 2 (mAur2) (Mus musculus, UniProt P97477); assay: murine Aurora Kinase 2 (mAur2) biochemical Scintillation Proximity Assay; settings: SPA, biotinylated Peptide 830, 1 μM ATP, 20 nM His-tagged mAur2
# T1 construct: N-terminal His-tagged mAur2 (amino acids 98-395; DRT, Protein Sciences); His (N); made in house
# T1 sequence (P97477 98-395): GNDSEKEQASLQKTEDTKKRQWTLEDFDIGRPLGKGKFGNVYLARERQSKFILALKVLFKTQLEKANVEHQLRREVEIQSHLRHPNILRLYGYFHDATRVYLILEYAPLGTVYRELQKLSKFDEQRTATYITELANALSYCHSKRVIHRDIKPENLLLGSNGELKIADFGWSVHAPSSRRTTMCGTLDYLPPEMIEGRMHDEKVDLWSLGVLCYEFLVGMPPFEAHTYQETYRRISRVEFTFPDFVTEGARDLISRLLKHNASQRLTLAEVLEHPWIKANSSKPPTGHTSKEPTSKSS
# Protocol: (§1) Using a Scintillation Proximity Assay (SPA) format, the murine Aurora Kinase 1 (mAur1) and murine Aurora Kinase 2 (mAur2) biochemical assay measures the ability of mAur2 to phosphorylate the substrate, biotinylated Peptide 830 (DRT, Protein Sciences). Once radiolabeled by the enzyme, the biotinylated substrate is captured on streptavidin-coated SPA beads and the radioactivity, in proximity to the SPA beads, is measured. For the generation of IC50 curves, the reaction was performed in 96-well isoplates (Wallac 1450-514) under the following conditions: a 10 mM stock solution of compound (in 100% dimethylsulfoxide; DMSO) was diluted 10 fold in 100% DMSO. Compounds were then serially diluted, 1:5, for an eight point dose curve, in 100% DMSO. A volume of 1 μL of the diluted compound was added to the reaction buffer that consisted of 25 mM HEPES pH 7.5, 1 mM MnCl2, 1 mM MgCl2, 1 mM DTT, 0.01% Tween20. A mixture with a final concentration per well of 1 μM cold ATP, 0.1 μCi ^33P-ATP (Amersham AH9968) and 1 μM biotinylated Peptide 830 was then added. The reaction was initiated with the addition of either recombinant, GST-tagged mAur 1 (amino acids 67-345) that was co-expressed with human INCENP (amino acids 704-919) (DRT, Protein Sciences) at a final concentration of 12 nM or N-terminal His-tagged mAur2 (amino acids 98-395; DRT, Protein Sciences) at a final concentration of 20 nM. The final reaction volume in each well was 100 μL and the final compound concentration ranged from 10 μM-[…] in 1% DMSO. The reaction mixture was allowed to incubate for 1-2 hours with gentle agitation at 25° C. To terminate the reaction, streptavidin-coated SPA beads (Amersham RPNQ0007; 50 μL of 0.5 mg beads dissolved in 165 mM EDTA) were then added to each well and incubation proceeded for an additional 15 minutes at 25° C. The plate was then centrifuged for ten minutes at 2000 rpm. Phosphorylation of the peptide substrate was measured using a Wallac 1450 Microbeta Plus Liquid Scintillation Counter.
# [2] = biological target: T2, murine Aurora Kinase 1 (mAur1) (Mus musculus, UniProt O70126); assay: murine Aurora Kinase 1 (mAur1) biochemical Scintillation Proximity Assay; settings: SPA, biotinylated Peptide 830, 1 μM ATP, 12 nM GST-tagged mAur 1 co-expressed with human INCENP
# T2 construct: recombinant, GST-tagged mAur 1 (amino acids 67-345) that was co-expressed with human INCENP; GST; made in house
# T2 sequence (O70126 67-345): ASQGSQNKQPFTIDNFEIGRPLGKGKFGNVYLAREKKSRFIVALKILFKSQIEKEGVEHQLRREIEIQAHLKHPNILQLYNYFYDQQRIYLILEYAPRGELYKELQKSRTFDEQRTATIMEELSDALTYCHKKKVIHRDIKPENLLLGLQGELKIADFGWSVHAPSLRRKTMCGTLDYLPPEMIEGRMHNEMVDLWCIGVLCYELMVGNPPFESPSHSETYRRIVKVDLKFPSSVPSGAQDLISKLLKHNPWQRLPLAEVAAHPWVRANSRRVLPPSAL
# T2 sequence (Q9NQS7 704-918 partner): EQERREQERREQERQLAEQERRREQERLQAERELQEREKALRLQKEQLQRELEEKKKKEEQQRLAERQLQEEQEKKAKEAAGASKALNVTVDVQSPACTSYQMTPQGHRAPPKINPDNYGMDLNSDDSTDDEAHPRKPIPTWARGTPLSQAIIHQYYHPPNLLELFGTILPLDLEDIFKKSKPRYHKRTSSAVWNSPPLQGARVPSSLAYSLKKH
# Protocol: as §1
SMILES,IC50 [1],IC50 [2]
"Nc1ncnn2cc(C(=O)N3CCCC3)c(-c3ccc(Nc4nc5ccc(Oc6ccccc6)c(F)c5[nH]4)cc3)c12 [Example 113, 5-{4-[(7-fluoro-6-phenoxy-1H-benzimidazol-2-yl)amino]phenyl}-6-(pyrrolidin-1-ylcarbonyl)pyrrolo[2,1-f][1,2,4]triazin-4-amine]",< 100 nM,< 100 nM
"Nc1ncnn2cc(C(=O)NCC(F)(F)F)c(-c3ccc(Nc4nc5cc(I)cnc5[nH]4)cc3)c12 [Example 25, 4-amino-5-{4-[(6-iodo-3H-imidazo[4,5-b]pyridin-2-yl)amino]phenyl}-N-(2,2,2-trifluoroethyl)pyrrolo[2,1-f][1,2,4]triazine-6-carboxamide]",< 100 nM,< 100 nM
"CCN(C(=O)c1cn2ncnc(N)c2c1-c1ccc(Nc2nc3cc(F)cc(F)c3[nH]2)cc1)C(C)C [Example 90, 4-amino-5-{4-[(5,7-difluoro-1H-benzimidazol-2-yl)amino]phenyl}-N-ethyl-N-isopropylpyrrolo[2,1-f][1,2,4]triazine-6-carboxamide]",< 100 nM,< 100 nM
"Nc1ncnn2cc(C(=O)NCC(F)(F)F)c(-c3ccc(Nc4nc5ccc([N+](=O)[O-])cc5[nH]4)cc3)c12 [Example 23, 4-amino-5-{4-[(6-nitro-1H-benzimidazol-2-yl)amino]phenyl}-N-(2,2,2-trifluoroethyl)pyrrolo[2,1-f][1,2,4]triazine-6-carboxamide]",< 100 nM,< 100 nM
"CCN(C)C(=O)c1cn2ncnc(N)c2c1-c1ccc(Nc2nc3cc(F)cc(F)c3[nH]2)cc1 [Example 89, 4-amino-5-{4-[(5,7-difluoro-1H-benzimidazol-2-yl)amino]phenyl}-N-ethyl-N-methylpyrrolo[2,1-f][1,2,4]triazine-6-carboxamide]",< 100 nM,< 100 nM
"CCN(C)C(=O)c1cn2ncnc(N)c2c1-c1ccc(Nc2nc3ccc(Oc4ccccc4)c(F)c3[nH]2)cc1 [Example 106, 4-amino-N-ethyl-5-{4-[(7-fluoro-6-phenoxy-1H-benzimidazol-2-yl)amino]phenyl}-N-methylpyrrolo[2,1-f][1,2,4]triazine-6-carboxamide]",< 100 nM,< 100 nM
"Cc1ncnc2[nH]c(Nc3ccc(-c4c(C(=O)NCC(F)(F)F)cn5ncnc(N)c45)cc3)nc12 [Example 45, 4-amino-5-{4-[(6-methyl-9H-purin-8-yl)amino]phenyl}-N-(2,2,2-trifluoroethyl)pyrrolo[2,1-f][1,2,4]triazine-6-carboxamide]",< 100 nM,< 100 nM
"COCCNC(=O)c1cn2ncnc(N)c2c1-c1ccc(Nc2nc3cc(F)cc(F)c3[nH]2)cc1 [Example 75, 4-amino-5-{4-[(5,7-difluoro-1H-benzimidazol-2-yl)amino]phenyl}-N-(2-methoxyethyl)pyrrolo[2,1-f][1,2,4]triazine-6-carboxamide]",< 100 nM,< 100 nM
"COCC1CCCN1C(=O)c1cn2ncnc(N)c2c1-c1ccc(Nc2nc3cc(F)cc(F)c3[nH]2)cc1 (stereo not shown) [Example 91, 5-{4-[(5,7-difluoro-1H-benzimidazol-2-yl)amino]phenyl}-6-{[2-(methoxymethyl)pyrrolidin-1-yl]carbonyl}pyrrolo[2,1-f][1,2,4]triazin-4-amine]",< 100 nM,< 100 nM
"Nc1ncnn2cc(C(=O)NCC(F)(F)F)c(-c3ccc(Nc4nc5ccc(Cl)nc5[nH]4)cc3)c12 [Example 26, 4-amino-5-{4-[(5-chloro-3H-imidazo[4,5-b]pyridin-2-yl)amino]phenyl}-N-(2,2,2-trifluoroethyl)pyrrolo[2,1-f][1,2,4]triazine-6-carboxamide]",< 100 nM,< 100 nM
"CCNC(=O)c1cn2ncnc(N)c2c1-c1ccc(Nc2nc3cc(F)cc(F)c3[nH]2)cc1 [Example 73, 4-amino-5-{4-[(5,7-difluoro-1H-benzimidazol-2-yl)amino]phenyl}-N-ethylpyrrolo[2,1-f][1,2,4]triazine-6-carboxamide]",< 100 nM,< 100 nM

# Other lines, results leading:
IC50 [1],IC50 [2],SMILES
< 100 nM,< 100 nM,"Nc1ncnn2cc(C(=O)NCC(F)(F)F)c(-c3ccc(Nc4nc5ccc(Oc6cccc(F)c6)c(F)c5[nH]4)cc3)c12 [Example 40, 4-amino-5-(4-{[7-fluoro-6-(3-fluorophenoxy)-1H-benzimidazol-2-yl]amino}phenyl)-N-(2,2,2-trifluoroethyl)pyrrolo[2,1-f][1,2,4]triazine-6-carboxamide]"
< 100 nM,< 100 nM,"Nc1ncnn2cc(C(=O)NCC3CC3)c(-c3ccc(Nc4nc5cc(F)cc(F)c5[nH]4)cc3)c12 [Example 80, 4-amino-N-(cyclopropylmethyl)-5-{4-[(5,7-difluoro-1H-benzimidazol-2-yl)amino]phenyl}pyrrolo[2,1-f][1,2,4]triazine-6-carboxamide]"
< 100 nM,< 100 nM,"Nc1ncnn2cc(C(=O)NC3CCCC3)c(-c3ccc(Nc4nc5cc(F)cc(F)c5[nH]4)cc3)c12 [Example 85, 4-amino-N-cyclopentyl-5-{4-[(5,7-difluoro-1H-benzimidazol-2-yl)amino]phenyl}pyrrolo[2,1-f][1,2,4]triazine-6-carboxamide]"
< 100 nM,< 100 nM,"Nc1ncnn2cc(C(=O)N3CCOCC3)c(-c3ccc(Nc4nc5ccc(Oc6ccccc6)c(F)c5[nH]4)cc3)c12 [Example 108, 5-{4-[(7-fluoro-6-phenoxy-1H-benzimidazol-2-yl)amino]phenyl}-6-(morpholin-4-ylcarbonyl)pyrrolo[2,1-f][1,2,4]triazin-4-amine]"
< 100 nM,< 100 nM,"Nc1ncnn2cc(C(=O)N3CCCCC3)c(-c3ccc(Nc4nc5ccc(Oc6ccccc6)c(F)c5[nH]4)cc3)c12 [Example 107, 5-{4-[(7-fluoro-6-phenoxy-1H-benzimidazol-2-yl)amino]phenyl}-6-(piperidin-1-ylcarbonyl)pyrrolo[2,1-f][1,2,4]triazin-4-amine]"
< 100 nM,< 100 nM,"CCCNc1ccc2nc(Nc3ccc(-c4c(C(=O)NCC(F)(F)F)cn5ncnc(N)c45)cc3)[nH]c2n1 [Example 55, 4-amino-5-(4-{[5-(propylamino)-3H-imidazo[4,5-b]pyridin-2-yl]amino}phenyl)-N-(2,2,2-trifluoroethyl)pyrrolo[2,1-f][1,2,4]triazine-6-carboxamide]"
< 100 nM,< 100 nM,"CC(C)N(C)C(=O)c1cn2ncnc(N)c2c1-c1ccc(Nc2nc3cc(F)cc(F)c3[nH]2)cc1 [Example 92, 4-amino-5-{4-[(5,7-difluoro-1H-benzimidazol-2-yl)amino]phenyl}-N-isopropyl-N-methylpyrrolo[2,1-f][1,2,4]triazine-6-carboxamide]"
< 100 nM,< 100 nM,"Nc1ncnn2cc(C(=O)NCC(F)(F)F)c(-c3ccc(Nc4nc5cc(F)c(F)cc5[nH]4)cc3)c12 [Example 14, 4-amino-5-{4-[(5,6-difluoro-1H-benzimidazol-2-yl)amino]phenyl}-N-(2,2,2-trifluoroethyl)pyrrolo[2,1-f][1,2,4]triazine-6-carboxamide]"
< 100 nM,< 100 nM,"Nc1ncnn2cc(C(=O)NCC(F)(F)F)c(-c3ccc(Nc4nc5ccc(Br)cc5[nH]4)cc3)c12 [Example 9, 4-amino-5-{4-[(6-bromo-1H-benzimidazol-2-yl)amino]phenyl}-N-(2,2,2-trifluoroethyl)pyrrolo[2,1-f][1,2,4]triazine-6-carboxamide]"
